Literature values, collected in patent US20220031737A1, “PHARMACEUTICAL COMPOSITIONS COMPRISING CHROMIUM AND CARBOHYDRATE BLOCKERS” (GluCare LLC, priority 2016, published 2022).

Experiments:
[1] = Sprague-Dawley rats, gavage, % of control
[2] = overweight African-American females, caloric restriction and exercise combined with oral NBC
[3] = 1,000 μg of chromium per day

O=C[C@H](O)[C@@H](O)[C@@H](O)CO [L-arabinose]
Glucose elevations above baseline over four hours following rice starch challenge, of control [1]: 85%

niacin-bound chromium [NBC]
Fat loss and muscle loss compared to control group without NBC supplement [2]: increased fat loss and reduced muscle loss significantly

[Cr] [chromium]
Relief of symptoms of type 2 diabetes [3]: highly effective
